# Measurements as given in patent publication US20090088460A1, “Administration of E-3[3-[N-(4-methoxybenzenesulfonyl)-N-isopropylamino]phenyl]-3-(3-pyridyl)propenohydroxamic acid for preventing and/or treating inflammatory cutaneous pathologies/afflictions” (GALDERMA RESEARCH &DEVELOPMENT, priority 2007, published 2009).
# Assays:
# [1] = test system: arachidonic acid-induced mouse ear edema; assay: Arachidonic acid-induced mouse ear edema test, single topical application; format: in vivo; conditions: Balb/c mice; for reduction of the arachidonic acid-induced ear edema: 20 μl on right ear
# Procedure: Evaluation of the Anti-Inflammatory Activity of W3646 (Compound (I)) after Single Topical Application in the Arachidonic Acid-Induced Mouse Ear Edema Test on Balb/c Mice
# The arachidonic acid is dissolved in a mixture of THF/methanol at 4%.
# The test compound is dissolved in the solution of arachidonic acid (AA) at the final concentration, and tested at concentrations of 0.1, 0.3 and 1%.
# 20 μl of the solution are applied to the inner face of the right ear.
# The thickness of the ear is measured at T+1 h, T+2 h and T+4 h.
# [2] = test system: TPA-induced mouse ear edema; assay: TPA-induced mouse ear edema test, single topical application; format: in vivo; conditions: Balb/c mice; for reduction of the TPA-induced ear edema: T+6 h
# Procedure: Evaluation of the Anti-Inflammatory Activity of W3646 (Compound (I)) after Single Topical Application in the TPA-Induced Mouse Ear Edema Test on Balb/c Mice (TPA=Tetradecanoylphorbol Acetate)
# The edema is induced by single application of 20 μl of TPA dissolved in acetone at 0.01%. […]
# A positive control, β-methasone valerate (VdB), is also tested.
# The thickness of the mouse ear is measured at T+6 h.
compound,measurement,setting,value
"COc1ccc2c(c1)c(CC(=O)O)c(C)n2C(=O)c1ccc(Cl)cc1 [Indomethacin, reference compound]",inhibition of the ear edema caused by arachidonic acid,"[1]; indomethacin at 5%, single topical application in 4% arachidonic acid solution, ear thickness measured T+1 h, T+2 h, T+4 h",92%
"COc1ccc(S(=O)(=O)N(c2cccc(/C(=C\C(=O)NO)c3cccnc3)c2)C(C)C)cc1 [W3646, E-3-[3-[N-(4-methoxybenzene-sulfonyl)-N-isopropylamino]phenyl]-3-(3-pyridyl)-propenohydroxamic acid]",reduction of the arachidonic acid-induced ear edema,"[1]; 0.1% topical in 4% arachidonic acid solution, NS",16%
same,reduction of the arachidonic acid-induced ear edema,"[1]; 0.3% topical in 4% arachidonic acid solution, *",49%
same,reduction of the arachidonic acid-induced ear edema,"[1]; 1% topical in 4% arachidonic acid solution, **",71%
same,reduction of the TPA-induced ear edema,"[2]; 0.1% in 0.01% TPA solution, NS",26%
same,reduction of the TPA-induced ear edema,"[2]; 0.3% in 0.01% TPA solution, **",53%
same,reduction of the TPA-induced ear edema,"[2]; 1% in 0.01% TPA solution, ***",79%
"CCCCC(=O)O[C@]1(C(=O)CO)[C@@H](C)C[C@H]2[C@@H]3CCC4=CC(=O)C=C[C@]4(C)[C@@]3(F)[C@@H](O)C[C@@]21C [betamethasone valerate, reference compound]",reduction in the TPA-induced ear edema,"[2]; 0.01% diluted in 0.01% TPA solution, ear thickness at T+6 h, ***",93%
